In publication PMC5601071 (Frontiers in Pharmacology, 2017):
Residues, ends and D or L forms follow the SMILES beside them. *: point of attachment. FITC = O=C1OC2(c3ccc(O)cc3Oc3cc(O)ccc32)c2ccc(NC(=S)*)cc21; 5FAM = O=C1OC2(c3ccc(O)cc3Oc3cc(O)ccc32)c2ccc(C(=O)*)cc21; Biotin = O=C1N[C@H]2[C@H](CS[C@H]2CCCCC(=O)*)N1; Dansyl = CN(C)c1cccc2c(S(=O)(=O)*)cccc12; Fmoc = O=C(OCC1c2ccccc2-c2ccccc21)*; Stearoyl = CCCCCCCCCCCCCCCCCC(=O)*; Palmitoyl = CCCCCCCCCCCCCCCC(=O)*; Myristoyl = CCCCCCCCCCCCCC(=O)*; For = O=C*

Test system: not listed separately
Assay: In vitro degradation / half-life time in serum
Format: in vitro ADME, mouse
Settings: spadin incubated with mouse serum; HPLC peaks identified by mass spectroscopy
Protocol: […] Incubations were stopped by direct acidification (5 μl of 2.5 M HCl), loaded in C-18 sepack cartridges, lyophilized, resuspended in 20% acetonitrile before loading onto HPLC for analysis of PE degradation/stability. Elutions of HPLC products were carried out by means of a 50-min linear gradient of acetonitrile from 20 to 70% at a flow rate of 1 ml/min. The amount of the intact PE for each incubation time was expressed as the percent of the initial amount of spadin.

SMILES	time of maximal appearance of degradation peak in serum [min]
CC[C@H](C)[C@H](NC(=O)[C@@H]1CCCN1C(=O)CNC(=O)[C@H](CO)NC(=O)[C@H](Cc1c[nH]c2ccccc12)NC(=O)[C@H](CCCNC(=N)N)NC(=O)[C@@H]1CCCN1C(=O)[C@H](CC(C)C)NC(=O)[C@@H]1CCCN1C(=O)[C@H](C)N)C(=O)NCC(=O)N[C@H](C(=O)N[C@@H](CO)C(=O)N[C@@H](Cc1c[nH]c2ccccc12)C(=O)NCC(=O)N[C@@H](CC(C)C)C(=O)O)C(C)C [PE 12-27] (H-APLPRWSGPIGVSWGL-OH)	30
CC[C@H](C)[C@H](NC(=O)[C@@H]1CCCN1C(=O)CNC(=O)[C@H](CO)NC(=O)[C@H](Cc1c[nH]c2ccccc12)NC(=O)[C@H](CCCNC(=N)N)NC(=O)[C@@H]1CCCN1C(=O)[C@@H](N)CC(C)C)C(=O)NCC(=O)N[C@H](C(=O)N[C@@H](CO)C(=O)N[C@@H](Cc1c[nH]c2ccccc12)C(=O)O)C(C)C [PE 14-25] (H-LPRWSGPIGVSW-OH)	15

Molecular target: T1, TREK-1 channel (hTREK-1/HEK cells) (Homo sapiens, UniProt O95069)
T1 construct: expressed in transfected cells
T1 sequence (O95069 1-426): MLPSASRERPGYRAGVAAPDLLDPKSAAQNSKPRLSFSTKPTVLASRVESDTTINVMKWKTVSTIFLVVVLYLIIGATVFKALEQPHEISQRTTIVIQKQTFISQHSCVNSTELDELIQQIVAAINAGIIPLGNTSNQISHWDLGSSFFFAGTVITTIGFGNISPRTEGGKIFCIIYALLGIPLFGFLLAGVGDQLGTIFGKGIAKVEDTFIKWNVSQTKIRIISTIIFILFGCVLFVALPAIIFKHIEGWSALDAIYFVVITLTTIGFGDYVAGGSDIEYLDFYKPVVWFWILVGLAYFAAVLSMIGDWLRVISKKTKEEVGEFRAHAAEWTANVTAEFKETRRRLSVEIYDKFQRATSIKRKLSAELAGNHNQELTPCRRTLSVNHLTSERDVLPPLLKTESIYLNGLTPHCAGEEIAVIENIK
Assay: TREK-1 current inhibition, whole-cell patch-clamp on hTREK-1/HEK cell line
Format: cell-based
Settings: HEK293, peptide 100 nM; TREK-1 first activated with 10 μM arachidonic acid (AA); current density at 0 mV; hTREK-1/HEK cells; mean ± SEM, n = cells; read-out: % of TREK-1 inhibition
Protocol: The human TREK-1/HEK cell line (Moha ou Maati et al., [2011]) and the native HEK293 cell line were maintained in Dulbecco's Modified Eagle's Medium (DMEM) supplemented with 10% (v/v) heat-inactivated fetal bovine serum, 1% (v/v) penicillin-streptomycin, 1% Glutamax. For the hTREK-1/HEK cells, 0.5 mg/ml G418 were added to the medium.
Cells were incubated in a humidified atmosphere containing 5% CO2. For electrophysiological measurements, cells were plated at a density of 20,000 cells per 35 mm dish.
Cells from the hTREK-1/HEK cell line were seeded at a density of 20,000 cells/35 mm dish. Electrophysiological recordings were performed 24–48 h after plating using the whole-cell configuration of patch-clamp technique. TREK-1 currents (ITREK−1) were recorded using RK400 patch-clamp amplifier (Axon Instrument, USA). They were low-pass filtered at 3 kHz and digitized at 10 kHz using a 12-bit analog-to-digital converter digidata (1322 series, Axon Instrument, USA). ITREK−1amplitudes were expressed as current densities [current amplitude (pA)/membrane capacitance (pF)]. The results were expressed as mean ± SEM (standard error of the mean).
Cells were continuously perfused using an external bath solution containing in mM: 150 NaCl, 5 KCl, 3 MgCl2, 1 CaCl2, and 10 HEPES. The bath solution was initially adjusted to pH 7.4 with NaOH. The intra-pipette solution contained in mM: 155 KCl, 3 MgCl2, 5 EGTA, and 10 HEPES adjusted to pH 7.2 with KOH. In order to measure ITREK−1, a cocktail of potassium channel blockers was added to the bath solution. This cocktail contained: 3 mM 4-AP (4-aminopyridine), 10 mM TEA (tetraethylammonium), 10 μM Glibenclamide, 100 nM Apamin, and 50 nM Charybdotoxin. Data acquisition was carried out using a computer (Dell Pentium) with pClamp software (Axon Instrument, USA). Whole-cell currents were generated by running a pulse or ramp protocol every 5 s from −100 to +60 mV with a holding potential maintained at −80 mV. To evaluate the inhibitory effect on TREK-1 channels of shortened spadin analogs compared with spadin, cells were first activated by 10 μM arachidonic acid (AA). Dose-response curves were realized to compare spadin-analog effects with spadin using Origin 8.6 (Northampton, MA, USA).
Patch-clamp recording data were analyzed using Clampfit (Molecular Devices, USA). I = f(V) curves were obtained from −100 to +60 mV ramp. Data were presented as mean ± SEM.

SMILES	inhibition at 0.1 µM [%]
CC(C)C[C@H](NC(=O)CNC(=O)[C@H](Cc1c[nH]c2ccccc12)NC(=O)[C@H](CO)NC(=O)[C@@H](NC(=O)CNC(=S)Nc1ccc2c(c1)C(=O)OC21c2ccc(O)cc2Oc2cc(O)ccc21)C(C)C)C(=O)N[C@@H](CCCNC(=N)N)C(=O)O [FITC-PE 22-28] ({FITC}-GVSWGLR-OH)	22.1 ± 12.6
CC[C@H](C)[C@H](NC(=O)[C@@H]1CCCN1C(=O)CCCC[C@@H]1SC[C@@H]2NC(=O)N[C@@H]21)C(=O)NCC(=O)N[C@H](C(=O)N[C@@H](CO)C(=O)N[C@@H](Cc1c[nH]c2ccccc12)C(=O)NCC(=O)N[C@@H](CC(C)C)C(=O)N[C@@H](CCCNC(=N)N)C(=O)O)C(C)C [Biotinylated-PI-PE 22-28] (Biotin-PIGVSWGLR-OH)	49.1 ± 7.45
CC(C)C[C@H](NC(=O)CNC(=O)[C@H](Cc1c[nH]c2ccccc12)NC(=O)[C@H](CO)NC(=O)[C@@H](NC(=O)[C@H](C)NC(=O)CCCC[C@@H]1SC[C@@H]2NC(=O)N[C@@H]21)C(C)C)C(=O)N[C@@H](CCCNC(=N)N)C(=O)O [Biotinylated G/A-PE 22-28] (Biotin-AVSWGLR-OH)	46.1 ± 7.74
CC(C)[C@H](NC(=O)CN)C(=O)N[C@@H](CO)C(=O)N[C@@H](Cc1c[nH]c2ccccc12)C(=O)O [PE 22-25] (H-GVSW-OH)	36 ± 17.5
CCOC(=O)[C@H](CCCNC(=N)N)NC(=O)[C@H](CC(C)C)NC(=O)CNC(=O)[C@H](Cc1c[nH]c2ccccc12)NC(=O)[C@H](CO)NC(=O)[C@@H](NC(=O)CN)C(C)C [PE 22-28-O-Ethyl] (H-GVSWGLR-OEt)	41.4 ± 11.5
CC(C)C[C@H](NC(=O)CNC(=O)[C@H](Cc1c[nH]c2ccccc12)NC(=O)[C@H](CO)NC(=O)[C@@H](NC(=O)CN)C(C)C)C(=O)N[C@@H](CCCNC(=N)N)C(=O)O [PE 22-28] (H-GVSWGLR-OH)	55.5 ± 4.55
CC(C)C[C@H](NC(=O)CNC(=O)[C@H](Cc1c[nH]c2ccccc12)NC(=O)[C@H](CO)NC(=O)[C@@H](NC(=O)[C@H](C)N)C(C)C)C(=O)N[C@@H](CCCNC(=N)N)C(=O)O [G/A-PE 22-28] (H-AVSWGLR-OH)	50.6 ± 7.93
CC[C@H](C)[C@H](NC(=O)[C@@H]1CCCN1C(=O)CNC(=O)[C@H](CO)NC(=O)[C@H](Cc1c[nH]c2ccccc12)NC(=O)[C@H](CCCNC(=N)N)NC(=O)[C@@H]1CCCN1C(=O)[C@H](CC(C)C)NC(=O)[C@@H]1CCCN1C(=O)[C@H](C)N)C(=O)NCC(=O)N[C@H](C(=O)N[C@@H](CO)C(=O)N[C@@H](Cc1c[nH]c2ccccc12)C(=O)NCC(=O)N[C@@H](CC(C)C)C(=O)O)C(C)C [PE 12-27] (H-APLPRWSGPIGVSWGL-OH)	28.4 ± 9.9
CC[C@H](C)[C@H](NC(=O)[C@@H]1CCCN1C(=O)CNC(=O)[C@H](CO)NC(=O)[C@H](Cc1c[nH]c2ccccc12)NC(=O)[C@H](CCCNC(=N)N)NC(=O)[C@@H]1CCCN1C(=O)[C@@H](N)CC(C)C)C(=O)NCC(=O)N[C@H](C(=O)N[C@@H](CO)C(=O)N[C@@H](Cc1c[nH]c2ccccc12)C(=O)O)C(C)C [PE 14-25] (H-LPRWSGPIGVSW-OH)	-14.7 ± 10.6
COC(=O)[C@H](CCCNC(=N)N)NC(=O)[C@H](CC(C)C)NC(=O)CNC(=O)[C@H](Cc1c[nH]c2ccccc12)NC(=O)[C@H](CO)NC(=O)[C@@H](NC(=O)CN)C(C)C [PE 22-28-O-Methyl] (H-GVSWGLR-OMe)	43 ± 13.5
CC[C@H](C)[C@H](NC(=O)[C@@H]1CCCN1)C(=O)NCC(=O)N[C@H](C(=O)N[C@@H](CO)C(=O)N[C@@H](Cc1c[nH]c2ccccc12)C(=O)NCC(=O)N[C@@H](CC(C)C)C(=O)N[C@@H](CCCNC(=N)N)C(=O)O)C(C)C [PI-PE 22-28] (H-PIGVSWGLR-OH)	46.2 ± 7.57
CC(C)C[C@H](NC(=O)CNC(=O)[C@H](Cc1c[nH]c2ccccc12)NC(=O)[C@H](CO)NC(=O)[C@@H](NC(=O)CNC(=O)CCCC[C@@H]1SC[C@@H]2NC(=O)N[C@@H]21)C(C)C)C(=O)N[C@@H](CCCNC(=N)N)C(=O)O [Biotinylated-PE 22-28] (Biotin-GVSWGLR-OH)	53 ± 6.42
CC(C)C[C@H](NC(=O)CNC(=O)[C@H](Cc1c[nH]c2ccccc12)NC(=O)[C@H](CO)NC(=O)[C@@H](NC(=O)CN)C(C)C)C(=O)O [PE 22-27] (H-GVSWGL-OH)	25.7 ± 20
CC(C)C[C@H](NC(=O)CNC(=O)[C@H](Cc1c[nH]c2ccccc12)NC(=O)[C@H](CO)NC(=O)[C@@H](NC(=O)CNC(=O)c1ccc2c(c1)C(=O)OC21c2ccc(O)cc2Oc2cc(O)ccc21)C(C)C)C(=O)N[C@@H](CCCNC(=N)N)C(=O)O [5'FAM-PE 22-28] (5FAM-GVSWGLR-OH)	6.63 ± 7.07

Same assay, conditions: HEK293, read-out: % of TREK-1 inhibition

SMILES	inhibition at 0.1 µM [%]
CC(=O)NCC(=O)N[C@H](C(=O)N[C@@H](CO)C(=O)N[C@@H](Cc1c[nH]c2ccccc12)C(=O)NCC(=O)N[C@@H](CC(C)C)C(=O)N[C@@H](CCCNC(=N)N)C(=O)O)C(C)C [Acetyl-PE 22-28] (Ac-GVSWGLR-OH)	20.5 ± 8.78
CCCCCCCCCCCCCC(=O)NCC(=O)N[C@H](C(=O)N[C@@H](CO)C(=O)N[C@@H](Cc1c[nH]c2ccccc12)C(=O)NCC(=O)N[C@@H](CC(C)C)C(=O)N[C@@H](CCCNC(=N)N)C(=O)O)C(C)C [Myristoyl-PE 22-28] (Myristoyl-GVSWGLR-OH)	18 ± 17.8
CC(C)C[C@H](NC(=O)CNC(=O)[C@H](Cc1c[nH]c2ccccc12)NC(=O)[C@H](CO)NC(=O)[C@@H](NC(=O)CNS(=O)(=O)c1cccc2c(N(C)C)cccc12)C(C)C)C(=O)N[C@@H](CCCNC(=N)N)C(=O)O [DansyI-PE 22-28] (Dansyl-GVSWGLR-OH)	48.8 ± 14.5
CCCCCCCCCCCCCCCCCC(=O)NCC(=O)N[C@H](C(=O)N[C@@H](CO)C(=O)N[C@@H](Cc1c[nH]c2ccccc12)C(=O)NCC(=O)N[C@@H](CC(C)C)C(=O)N[C@@H](CCCNC(=N)N)C(=O)O)C(C)C [Stearic acid-PE 22-28] (Stearoyl-GVSWGLR-OH)	5.41 ± 5.5
CC(C)C[C@H](NC(=O)CNC(=O)[C@H](Cc1c[nH]c2ccccc12)NC(=O)[C@H](CO)NC(=O)[C@@H](NC(=O)CNC(=O)OCC1c2ccccc2-c2ccccc21)C(C)C)C(=O)N[C@@H](CCCNC(=N)N)C(=O)O [F-Moc-PE 22-28] (Fmoc-GVSWGLR-OH)	5.83 ± 10.9
CCCCCCCCCCCCCCCC(=O)NCC(=O)N[C@H](C(=O)N[C@@H](CO)C(=O)N[C@@H](Cc1c[nH]c2ccccc12)C(=O)NCC(=O)N[C@@H](CC(C)C)C(=O)N[C@@H](CCCNC(=N)N)C(=O)O)C(C)C [Palmitoyl-PE 22-28] (Palmitoyl-GVSWGLR-OH)	26.7 ± 16.4
CC(C)C[C@H](NC(=O)CNC(=O)[C@H](Cc1c[nH]c2ccccc12)NC(=O)[C@H](CO)NC(=O)[C@@H](NC(=O)CNC=O)C(C)C)C(=O)N[C@@H](CCCNC(=N)N)C(=O)O [Formyl-PE 22-28] (For-GVSWGLR-OH)	32.5 ± 12.2

Same assay, conditions: peptide 100 nM after 10 μM AA; n = 8, p = 0.09

SMILES	current density measured at 0 mV compared with AA activity alone (100%) [%]
CC[C@H](C)[C@H](NC(=O)[C@@H]1CCCN1C(=O)CNC(=O)[C@H](CO)NC(=O)[C@H](Cc1c[nH]c2ccccc12)NC(=O)[C@H](CCCNC(=N)N)NC(=O)[C@@H]1CCCN1C(=O)[C@@H](N)CC(C)C)C(=O)NCC(=O)N[C@H](C(=O)N[C@@H](CO)C(=O)N[C@@H](Cc1c[nH]c2ccccc12)C(=O)O)C(C)C [PE 14-25] (H-LPRWSGPIGVSW-OH)	114.7 ± 10.6
